Laboratory results taken from patent publication US20070037263A1, “Novel acetoacetyl-coa reductase and process for producing optically active alcohol” (priority 2003, published 2007).

Tested on: RAX (acetoacetyl-CoA reductase)
Assay: Ethyl 4-chloroacetoacetate reducing activity of RAX in the presence of inhibitors
Type: biochemical
Conditions: for enzyme activity inhibited (in words): summary of Table 1
[1] = inhibitor 1.0 mM, 10 mM ethyl 4-chloroacetoacetate, 0.25 mM NADPH, pH 6.5, 30° C., 3 minutes, activity without inhibitor = 100%

Row | SMILES | enzyme activity inhibited (in words) | Relative activity [1] [%] | further results
1 | O=[N+]([O-])[O-].[Ag+] [AgNO3, silver nitrate] | inhibited |  | Relative activity (inhibitor 0.1 mM, 10 mM ethyl 4-chloroacetoacetate, 0.25 mM NADPH, pH 6.5, 30° C., 3 minutes, activity without inhibitor = 100%): 0%
2 | [Cl-].[Cl-].[Co+2] [CoCl2] |  |  | Relative activity (pH 6.5): 108%
3 | O=S(=O)([O-])[O-].[Cu+2] [CuSO4, copper sulfate] | inhibited | 0 | 
4 | O=C(O)CN(CCN(CC(=O)O)CC(=O)O)CC(=O)O [EDTA] |  |  | Relative activity (pH 6.5): 83%
5 | [Cl][Hg][Cl] [HgCl2, mercury chloride] | inhibited |  | Relative activity (inhibitor 0.01 mM, 10 mM ethyl 4-chloroacetoacetate, 0.25 mM NADPH, pH 6.5, 30° C., 3 minutes, activity without inhibitor = 100%): 0%
6 | O=C(O)CI [Iodoacetic acid] |  |  | Relative activity (pH 6.5): 98%
7 | O=S(=O)([O-])[O-].[Mg+2] [MgSO4] |  | 100 | 
8 | [Cl][Mn][Cl] [MnCl2] |  | 97 | 
9 | CCN1C(=O)C=CC1=O [N-Ethylmaleimide] |  | 103 | 
10 | O=S(=O)(F)Cc1ccccc1 [Phenylmethylsulfonyl fluoride] |  | 108 | 
11 | O=S(=O)([O-])[O-].[Zn+2] [ZnSO4] |  | 81 | 
12 | O=C(O)c1cc[c]([Hg][Cl])cc1 [p-Chloromercuribenzoic acid] | inhibited | 0 | 
